Test results as given in US20120046273A1, “COMPOUNDS AND COMPOSITIONS FOR COGNITION-ENHANCEMENT, METHODS OF MAKING, AND METHODS OF TREATING” (MITHRIDION, INC., priority 2009, published 2012).
Where a name gives a salt, the structure may show the parent alone. Values belong to the compound of their own block, whether it stands above or below them.

Assays:
rat M3 receptors = target: T1, rat M3 receptors (Rattus norvegicus, UniProt P08483); assay: PI turnover (inositol phosphate production) in M3-CHO cells; assay type: cell-based; settings: relative to mean Smax for carbachol (100.0)
T1 construct: host or cells: Chinese Hamster Ovary cells (M3-CHO)
Experimental: (§1) The medium was changed to 70 μL/well of inositol-free DMEM containing 2 mM glutamine, 10% FBS and 10 μCi/ml of [3H]-inositol (PE:cat # NET114A250UC), incubated overnight as above, then 100 μL of a solution of the test compound in HBSS containing 10 mM LiCl and 20 mM HEPES, pH 7.4 was added, incubation was continued for 60 min under the above conditions, and the test was stopped by removing the test compound and replacing with 100 μL of 50 mM formic acid in water at 4° C.

rat M1 receptors = target: T2, rat M1 receptors (Rattus norvegicus, UniProt P08482); assay: PI turnover (inositol phosphate production) in M1-CHO cells; assay type: cell-based; settings: for functional selectivity for M1- versus M3-subtype by PI turnover: cell lines expressing individual subtypes of muscarinic receptors; for M1/CHO PI turnover Relative Mean Smax: relative to mean Smax for carbachol (100.0)
T2 construct: host or cells: Chinese Hamster Ovary cells (M1-CHO)
T2 sequence (P08482 1-460): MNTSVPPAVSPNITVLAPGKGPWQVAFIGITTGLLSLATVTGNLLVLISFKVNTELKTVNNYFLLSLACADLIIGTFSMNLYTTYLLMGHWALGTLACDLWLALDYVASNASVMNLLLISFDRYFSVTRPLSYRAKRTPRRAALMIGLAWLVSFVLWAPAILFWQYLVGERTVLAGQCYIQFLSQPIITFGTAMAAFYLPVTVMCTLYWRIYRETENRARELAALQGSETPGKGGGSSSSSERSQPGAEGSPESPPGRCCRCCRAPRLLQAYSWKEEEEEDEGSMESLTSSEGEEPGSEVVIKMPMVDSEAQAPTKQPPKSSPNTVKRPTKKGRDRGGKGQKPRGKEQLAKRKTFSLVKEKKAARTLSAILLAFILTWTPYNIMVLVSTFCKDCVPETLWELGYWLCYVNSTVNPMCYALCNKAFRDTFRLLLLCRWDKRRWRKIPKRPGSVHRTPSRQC
Experimental: as §1

[1] = Metabolites in serum and urine of dosed rats (LC-MS); assay type: in vivo; settings: rat serum/plasma or urine, oral dosing; hydrochloride
Experimental: Oxadiazoles disclosed herein as well as other oxadiazoles were investigated to determine the formation of metabolites. Animals were dosed, blood taken, serum prepared, serum proteins precipitated and ultrafiltrates prepared as described in Example 6. In separate experiments, urine was collected from rats for 16-24 hours after dosing, using standard metabolic cages. The urine container and collected urine were maintained at 4° C. Urine was lyophilized, taken back into water. The ultrafiltrate was prepared by adding formic acid to a final concentration of 1% to the urine samples, then filtered through a 0.2 um nylon membrane. The ultrafiltrate was subjected to LC-MS analysis. Instead of measuring the product ions in Q3, manual Q1 scans of the liquid chromatograph were undertaken, seeking parent ions of potential metabolites of the compounds. The criteria for identifying metabolites were as follows: (1) the ion should be present in the sera or urines of dosed rats, but not in sera or urines from non-dosed rats (2) the ion should be identifiable as a metabolic derivative of the dosed compound (e.g. loss of a functional chemical moiety, addition of a hydroxyl group or a glucuronic acid moiety, etc). Metabolites were determined not to be present if no compound meeting the above criteria could be detected in serum or urine.

[2] = Brain concentrations in rats after oral gavage; assay type: in vivo, rat; settings: for Brain Cmax (10 mg/kg po) MCD-386 = 1.00: rat, relative to MCD-386; for penetration into the brain: rats after oral dosing
Experimental: Long-Evans Hooded rats (Charles River: male, 250-350 g) were dosed with solutions of test compounds in PBS by oral gavage. At the desired time after dosing, the animals were anesthetized with isoflurane, and then euthanized by cervical dislocation. Blood was obtained by cardiac puncture, transferred to a 1.5 mL microcentrifuge tube containing 15U Heparin, and the plasma recovered after centrifugation. Brains were dissected, weighed, immediately chilled to 4° C., and homogenized using a PowerGen 125 homogenizer in five volumes of ice-cold 2% formic acid. Proteins were precipitated from plasma and brain homogenate with two and five volumes respectively of ice-cold 2% formic acid and clarified by centrifugation. The supernatant was ultra-filtered by centrifugation through a 3K MWCO spin column (Pall Life Sciences), following the manufacturer's instructions. The concentration of compound in the ultra-filtrate was subjected to reverse-phase liquid chromatography using a 150×2.1 mm Agilent C8 reverse-phase column on a Shimadzu Prominence LC, eluting the compounds with a gradient of 2% to 50% of acetonitrile+0.1% formic acid for compound MI-50,382, or an isocratic flow of 2% acetonitrile+0.1% formic acid for the rest of the compounds listed. The concentration of the compound in the column effluent was measured using an Applied Biosystems API-3200 triple quadrupole mass spectrometer equipped with an electrospray sample injection system. The counts of the characteristic parent and product ions of each test compound were converted to concentration units by comparison with a standard calibration curve.

rats = assay: Salivary flow in rats dosed orally; assay type: in vivo, rat
[3] = system: hippocampal inositol phosphate signaling pathway; assay: In vivo tissue inositol phosphate signaling pathway activation, hippocampus; parameters: species or system rat; settings: 1 mg/kg of 82; NMS 0.1 mg/kg
Experimental: (§2) Experimental compounds or drug substances were administered using standard techniques to Long Evans Hooded rats weighing 225 to 350 grams, and which had been pretreated with a subcutaneous injection of lithium chloride at a suitable dose between 3 and 10 mmoles per kg. At suitable times the animals were briefly anesthetized using 5% isoflurane and euthanized by decapitation. The brains and submaxillary salivary glands were rapidly dissected out, and the hippocampuses were dissected from the brains. The dissected tissues were homogenized in a suitable volume of ice-cold phosphate-buffered saline containing 10 mM lithium chloride, pH7.4, using a tissue homogenizer, and used immediately or frozen in aliquots at −80degC. for future use. The concentration of inositol-1-phosphate was determined in the homogenates using the IPOne TR-FRET assay (CisBio cat no 621PAPEB), following the manufacturer's instruction

anesthetized normal rats = assay: In vivo measurement of salivation; parameters: species or system rat
Experimental: Suitable doses of test compounds or drug substances were administered using standard techniques to Long Evans Hooded rats weighing 225 to 350 grams, or CD-1 mice weighing 30 to 50 grams, which had been anesthetized using 2-3.5%% of isoflurane in oxygen. The animals were placed slightly head-down on an inclined, heated ramp. Rectal temperature was monitored using a thermocouple and the temperature of the heating pad was adjusted manually to maintain normal body temperature. Saliva was collected from the mouth by absorption onto pre-weighed slips of filter paper. The filter paper was changed periodically and the amount of saliva was measured by weighing the filter paper slips

[4] = system: salivary gland inositol phosphate signaling pathway; assay: In vivo tissue inositol phosphate signaling pathway activation, salivary gland; parameters: species or system rat; settings: 1 mg/kg of 82
Experimental: as §2

anesthetized rats = assay: Salivation on iontophoretic transdermal delivery of agonist and antagonist from one patch; assay type: in vivo, rat; settings: patch with 1 mg of 82 plus 0.01mg antagonist
Experimental: Experimental compounds and drug substances were delivered transdermally in rats using iontophoresis as follows. The fur was shaved from the backs of Long Evans Hooded rats weighing 225 to 325 grams, using electric clippers. Experimental compounds and drug substances were formulated at suitable concentrations an aqueous mixture of the following composition:
The polyvinyl alcohol/water was heated to 95 degC. until it became clear, then the other constituents were added and mixed well. The mixture was introduced into suitable molds containing a disc-shaped cavity 2.2 cm diameter and 2.2 mm deep. Molds may be fabricated using two glass sheets separated by a silicone rubber sheet with suitable sized cavities and filling ports cut-outs. The molds were subject to 3 freeze-thaw cycles at −80degC. and 20degC. until a firm cryogel was obtained. The gels were separated from the molds and trimmed into a circular shape. The gel was placed in a silicone rubber casing with one face in contact with a circular silver foil anodic electrode (22 mm dia/250 microns thick), and the assembly was placed on the shaved skin of the rat such that the other face was in contact with the skin on one side of the back of the rat. The rubber casing formed a seal over and around the gel/electrode assembly. […] This was placed on the other side of the shaved back of the rat, the edges of the gel discs being about 20 mm apart at their nearest point. A DC voltage was applied across the two patches from a constant-current DC power supply and the voltage adjusted to obtain the desired current, such that the skin of the animal completed the electrical circuit.
The devices were placed on shaved backs of anesthetized rats and salivation was measured.
The animals were placed slightly head-down on an inclined, heated ramp. Rectal temperature was monitored using a thermocouple and the temperature of the heating pad was adjusted manually to maintain normal body temperature. Saliva was collected from the mouth by absorption onto pre-weighed slips of filter paper. The filter paper was changed periodically and the amount of saliva was measured by weighing the filter paper slips

[5] = rat, in vivo, po

T1 sequence (P08483 whole entry): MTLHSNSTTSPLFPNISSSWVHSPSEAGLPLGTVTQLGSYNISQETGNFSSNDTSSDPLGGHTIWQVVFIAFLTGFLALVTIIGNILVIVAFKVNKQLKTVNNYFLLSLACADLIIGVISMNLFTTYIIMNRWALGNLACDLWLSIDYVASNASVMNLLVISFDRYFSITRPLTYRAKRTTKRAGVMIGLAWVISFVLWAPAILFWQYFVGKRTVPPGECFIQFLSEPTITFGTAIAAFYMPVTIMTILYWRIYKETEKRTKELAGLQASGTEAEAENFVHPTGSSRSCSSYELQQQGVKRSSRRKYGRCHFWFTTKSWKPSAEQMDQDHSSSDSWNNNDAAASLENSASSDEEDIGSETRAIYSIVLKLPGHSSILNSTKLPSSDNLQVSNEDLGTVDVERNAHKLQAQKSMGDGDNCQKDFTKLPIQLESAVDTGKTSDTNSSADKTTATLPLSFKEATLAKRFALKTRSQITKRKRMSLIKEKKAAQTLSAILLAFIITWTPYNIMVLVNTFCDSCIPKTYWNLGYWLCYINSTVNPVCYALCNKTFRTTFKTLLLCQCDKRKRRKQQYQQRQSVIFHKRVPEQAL

Structure (SMILES): [2H]C([2H])(C)c1noc(C2CN=CNC2)n1 (stereo not drawn) [Compound 66, 3-(2,2-d2-Ethyl)-5-(1,4,5,6-tetrahydropyrimidin-5-yl)-1,2,4-oxadiazole hydrochloride]
M3/CHO PI turnover Relative Mean Smax (rat M3 receptors): 15.1
functional selectivity for M1- versus M3-subtype by PI turnover (rat M1 receptors): M1-subtype functionally selective muscarinic agonists
M1/CHO PI turnover Relative Mean Smax (rat M1 receptors): 84.0
Presence of metabolites (10 mg/kg po) [1]: No metabolites were identified and No
Brain Cmax (10 mg/kg po) MCD-386 = 1.00 [2]: 0.82
penetration into the brain [2]: penetrated into the brain

Structure (SMILES): [2H]C([2H])([2H])C([2H])([2H])c1noc(C2CN=CNC2)n1 (stereo not drawn) [Compound 70, 3-(1,1,2,2,2-d5-ethyl)-5-(1,4,5,6-tetrahydropyrimidin-5-yl)-1,2,4-oxadiazole hydrochloride]
M3/CHO PI turnover Relative Mean Smax (rat M3 receptors): 16.5
functional selectivity for M1- versus M3-subtype by PI turnover (rat M1 receptors): M1-subtype functionally selective muscarinic agonists
M1/CHO PI turnover Relative Mean Smax (rat M1 receptors): 67.7
Presence of metabolites (10 mg/kg po) [1]: No metabolites were identified and No
Brain Cmax (10 mg/kg po) MCD-386 = 1.00 [2]: 0.61
penetration into the brain [2]: penetrated into the brain

Structure (SMILES): Cl.[2H]C([2H])([2H])c1noc(C2CN=CNC2)n1 (stereo not drawn) [Compound 74, 3-(d3-methyl)-5-(1,4,5,6-tetrahydropyrimidin-5-yl)-1,2,4-oxadiazole hydrochloride]
agonist efficacy at M1- and M3-subtype muscarinic receptors by PI turnover (rat M1 receptors): near full-agonist
functional selectivity for M1- versus M3-subtype by PI turnover (rat M1 receptors): not selective for the M1 subtype
M1/CHO PI turnover Relative Mean Smax (rat M1 receptors): 98.6
salivary flow (rats): copious salivary flow

Structure (SMILES): [2H]C([2H])([2H])Cc1noc(C2CN=CNC2)n1 (stereo not drawn) [Compound 78, 3-(2,2,2-d3-Ethyl)-5-(1,4,5,6-tetrahydropyrimidin-5-yl)-1,2,4-oxadiazole hydrochloride]
M3/CHO PI turnover Relative Mean Smax (rat M3 receptors): 28.8
M1/CHO PI turnover Relative Mean Smax (rat M1 receptors): 48.9

Structure (SMILES): C[N+]1(C)[C@@H]2C[C@@H](OC(=O)[C@H](CO)c3ccccc3)C[C@H]1[C@@H]1O[C@@H]12 [NMS, N-methylscopolamine]
inhibition of increase in inositol phosphate in the hippocampus caused by 82 [3]: does not inhibit
decrease in salivation caused by 82 (anesthetized normal rats; 0.3 mg/kg of 82): dose-dependent decrease in salivation
reduction in salivation caused by MCD-386 (anesthetized normal rats; 1 mg/kg dose of MCD-386): dose-dependent reduction
block of increase in salivary gland inositol phosphate caused by 82 ([4]; NMS 0.003 mg/kg): some breakthrough activation
block of increase in salivary gland inositol phosphate caused by 82 ([4]; NMS 0.03 mg/kg to 0.01 mg/kg): nearly as effective as 0.1 mg/kg
block of increase in salivary gland inositol phosphate caused by 82 ([4]; antagonist 0.1 mg/kg NMS): completely block
reduction of salivation caused by transdermal iontophoretic delivery of 82 (anesthetized rats): greatly reduced

PAMPA (? × 106): 0.26 ? × 106
Brain/plasma ratio [5]: Very low
Structure (SMILES): CNC(=C[N+](=O)[O-])NCCSCc1ccc(CN(C)C)o1 [Ranitidine, reference compound]
